In patent US20230024096A1, “BIFUNCTIONAL COMPOUNDS FOR THE TREATMENT OF CANCER” (Hoffmann-La Roche Inc., priority 2019, published 2023) one finds DC50 and Emax data, which are given here for 13 compounds.

This assay deals with T1, SMARCA2 (Homo sapiens, UniProt P51531).
T1 construct: endogenous in cells; host or cells: HT1080 (CRISPR HiBiT knock-in clone, generated in house)
In words: SMARCA2 HiBiT degradation assay (cellular). Type of assay: cell-based. The note with it: table head names A549; for DC50: 6 h incubation, HiBiT-tagged SMARCA2, luminescence read-out, read-out: HiBit A549 SMARCA2 IP (nM) 6 h; for Emax: A549, 6 h incubation, Emax = amount of residual protein remaining in the cell following compound treatment.

T1 sequence (P51531 whole entry): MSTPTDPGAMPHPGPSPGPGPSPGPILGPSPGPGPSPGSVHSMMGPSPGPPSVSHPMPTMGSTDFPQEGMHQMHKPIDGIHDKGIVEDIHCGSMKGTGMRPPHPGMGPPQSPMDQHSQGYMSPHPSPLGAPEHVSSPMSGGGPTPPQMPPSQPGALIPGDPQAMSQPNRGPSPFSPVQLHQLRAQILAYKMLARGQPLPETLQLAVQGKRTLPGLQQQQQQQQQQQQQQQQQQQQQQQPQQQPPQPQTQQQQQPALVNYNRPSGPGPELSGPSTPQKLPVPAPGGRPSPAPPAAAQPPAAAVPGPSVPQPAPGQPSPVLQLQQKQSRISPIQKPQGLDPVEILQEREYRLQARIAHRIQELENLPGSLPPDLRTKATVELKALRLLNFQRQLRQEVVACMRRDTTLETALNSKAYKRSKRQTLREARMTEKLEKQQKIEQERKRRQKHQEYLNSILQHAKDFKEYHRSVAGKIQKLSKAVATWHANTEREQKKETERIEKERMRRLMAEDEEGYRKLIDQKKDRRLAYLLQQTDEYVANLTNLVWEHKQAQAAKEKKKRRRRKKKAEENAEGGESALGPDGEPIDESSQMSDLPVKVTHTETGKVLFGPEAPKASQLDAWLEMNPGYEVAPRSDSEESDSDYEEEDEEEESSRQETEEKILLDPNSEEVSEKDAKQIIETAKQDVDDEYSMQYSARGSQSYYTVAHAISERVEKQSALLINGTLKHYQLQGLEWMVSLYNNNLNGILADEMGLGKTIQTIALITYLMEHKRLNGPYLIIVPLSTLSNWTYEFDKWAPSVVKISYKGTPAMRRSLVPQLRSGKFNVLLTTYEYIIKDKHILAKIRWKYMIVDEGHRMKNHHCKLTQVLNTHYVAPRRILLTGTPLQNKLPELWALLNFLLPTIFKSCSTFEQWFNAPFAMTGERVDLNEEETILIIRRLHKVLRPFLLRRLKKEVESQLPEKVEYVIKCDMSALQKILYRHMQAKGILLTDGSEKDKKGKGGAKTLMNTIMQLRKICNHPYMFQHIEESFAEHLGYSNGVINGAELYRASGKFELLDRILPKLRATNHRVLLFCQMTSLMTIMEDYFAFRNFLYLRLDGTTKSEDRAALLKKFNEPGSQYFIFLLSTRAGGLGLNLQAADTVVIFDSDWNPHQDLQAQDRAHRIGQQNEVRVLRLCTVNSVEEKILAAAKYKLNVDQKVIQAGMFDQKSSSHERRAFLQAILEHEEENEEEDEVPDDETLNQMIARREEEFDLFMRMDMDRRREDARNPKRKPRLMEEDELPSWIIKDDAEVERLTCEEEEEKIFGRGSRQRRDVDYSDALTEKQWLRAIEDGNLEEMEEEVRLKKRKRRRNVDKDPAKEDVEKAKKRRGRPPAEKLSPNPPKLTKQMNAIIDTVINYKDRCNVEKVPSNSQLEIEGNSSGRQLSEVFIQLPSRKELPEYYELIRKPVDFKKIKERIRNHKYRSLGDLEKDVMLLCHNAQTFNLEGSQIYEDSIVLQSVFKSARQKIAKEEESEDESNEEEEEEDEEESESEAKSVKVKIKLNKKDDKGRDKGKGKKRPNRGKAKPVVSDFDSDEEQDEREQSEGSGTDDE

For `Nc1nnc(-c2ccccc2O)cc1N1CC(Oc2cccc(CN3CCN(C(=O)CCC4CCN(c5ccc6c(c5)C(=O)N(C5CCC(=O)NC5=O)C6=O)CC4)CC3)c2)C1` (racemic) [Example 154, rac-5-[4-[3-[4-[[3-[1-[3-amino-6-(2-hydroxyphenyl)pyridazin-4-yl]azetidin-3-yl]oxyphenyl]methyl]piperazin-1-yl]-3-oxo-propyl]-1-piperidyl]-2-(2,6-dioxo-3-piperidyl)isoindoline-1,3-dione], the DC50 was found to be 12 nM and the Emax amounted to 16%.
Taken in the same sequence, the figures for `Nc1nnc(-c2ccccc2O)cc1N1CCC2(CC1)CN(C(=O)CCCCCCCCCCCn1cc(CNc3cccc4c3C(=O)N(C3CCC(=O)NC3=O)C4=O)nn1)CCO2` (centres unmarked) [Example 7, 4-[[1-[12-[9-[3-amino-6-(2-hydroxyphenyl)pyridazin-4-yl]-1-oxa-4,9-diazaspiro[5.5]undecan-4-yl]-12-oxo-dodecyl]triazol-4-yl]methylamino]-2-(2,6-dioxo-3-piperidyl)isoindoline-1,3-dione] were 423 nM and 42%.
Taken in the same sequence, the figures for `Nc1nnc(-c2ccccc2O)cc1N1CCC2(CC1)CN(C(=O)CCC1CCN(c3cccc4c3C(=O)N(C3CCC(=O)NC3=O)C4=O)CC1)CCO2` (centres unmarked) [Example 2, 4-[4-[3-[9-[3-amino-6-(2-hydroxyphenyl)pyridazin-4-yl]-1-oxa-4,9-diazaspiro[5.5]undecan-4-yl]-3-oxo-propyl]-1-piperidyl]-2-(2,6-dioxo-3-piperidyl)isoindoline-1,3-dione] were 550 nM and 53%.
With `Nc1nnc(-c2ccccc2O)cc1OC1CCCN(c2ccc(N3CCN(C(=O)CCCCCCCCn4cc(CNc5cccc6c5C(=O)N(C5CCC(=O)NC5=O)C6)nn4)CC3)cc2)C1` (centres unmarked) [Example 111, 3-[7-[[1-[9-[4-[4-[3-[3-amino-6-(2-hydroxyphenyl)pyridazin-4-yl]oxy-1-piperidyl]phenyl]piperazin-1-yl]-9-oxo-nonyl]triazol-4-yl]methylamino]-1-oxo-isoindolin-2-yl]piperidine-2,6-dione], the DC50 came to 177 nM and the Emax came to 60%.
In the case of `Nc1nnc(-c2ccccc2O)cc1N1CC2CCC(C1)N2c1cccc(CN2CCN(C(=O)C3CN(c4ccc5c(c4)C(=O)N(C4CCC(=O)NC4=O)C5=O)C3)CC2)c1` (racemic) [Example 179, rac-5-[3-[4-[[3-[3-[3-amino-6-(2-hydroxyphenyl)pyridazin-4-yl]-3,8-diazabicyclo[3.2.1]octan-8-yl]phenyl]methyl]piperazine-1-carbonyl]azetidin-1-yl]-2-(2,6-dioxo-3-piperidyl)isoindoline-1,3-dione], the DC50 was found to be 100 nM and the Emax was determined as 39%.
For `Nc1nnc(-c2ccccc2O)cc1N1CCC(CNC(=O)CCCN2CCC(c3ccc(OC4CCC(=O)NC4=O)cc3)CC2)(c2ccccc2)CC1` (centres unmarked) [Example 78, N-((1-(3-amino-6-(2-hydroxyphenyl)pyridazin-4-yl)-4-phenylpiperidin-4-yl)methyl)-4-(4-(4-((2,6-dioxopiperidin-3-yl)oxy)phenyl)piperidin-1-yl)butanamide], the DC50 is 23 nM and the Emax turned out to be 35%.
Regarding `Nc1nnc(-c2ccccc2O)cc1N1CC2CCC(C1)N2c1ccc(C(F)(F)F)c(C(=O)N2CCN(C(=O)C3CCN(c4ccc5c(c4)C(=O)N(C4CCC(=O)NC4=O)C5=O)CC3)CC2)c1` (racemic) [Example 107, rac-5-[4-[4-[5-[3-[3-amino-6-(2-hydroxyphenyl)pyridazin-4-yl]-3,8-diazabicyclo[3.2.1]octan-8-yl]-2-(trifluoromethyl)benzoyl]piperazine-1-carbonyl]-1-piperidyl]-2-(2,6-dioxo-3-piperidyl)isoindoline-1,3-dione], the DC50 came out at 193 nM and the Emax was found to be 51%.
In the case of `Nc1nnc(-c2ccccc2O)cc1N1CCC(NC(=O)CCCN2CCC(c3ccc(OC4CCC(=O)NC4=O)cc3)CC2)(c2ccccc2)CC1` (centres unmarked) [Example 151, N-[1-[3-amino-6-(2-hydroxyphenyl)pyridazin-4-yl]-4-phenyl-4-piperidyl]-4-[4-[4-[(2,6-dioxo-3-piperidyl)oxy]phenyl]-1-piperidyl]butanamide], the DC50 came to 855 nM and the Emax is 54%.
As for `Nc1nnc(-c2ccccc2O)cc1N1CC2CCC(C1)N2c1cc(F)cc(CN2CCN(C(=O)C3CCN(c4ccc5c(c4)C(=O)N(C4CCC(=O)NC4=O)C5=O)CC3)CC2)c1` (racemic) [Example 193, rac-5-[4-[4-[[3-[3-[3-Amino-6-(2-hydroxyphenyl)pyridazin-4-yl]-3,8-diazabicyclo[3.2.1]octan-8-yl]-5-fluoro-phenyl]methyl]piperazine-1-carbonyl]-1-piperidyl]-2-(2,6-dioxo-3-piperidyl)isoindoline-1,3-dione], the DC50 stood at 51 nM and the Emax came out at 25%.
The like results for `Nc1nnc(-c2ccccc2O)cc1N1CC(Oc2ccc(C(=O)N3CCN(C(=O)C4CCN(c5ccc6c(c5)C(=O)N(C5CCC(=O)NC5=O)C6=O)CC4)CC3)c(Cl)c2)C1` (racemic) [Example 125, rac-5-[4-[4-[4-[1-[3-amino-6-(2-hydroxyphenyl)pyridazin-4-yl]azetidin-3-yl]oxy-2-chloro-benzoyl]piperazine-1-carbonyl]-1-piperidyl]-2-(2,6-dioxo-3-piperidyl)isoindoline-1,3-dione] were, in that order, 30 nM and 42%.
For `CN(c1cccc2c1C(=O)N(C1CCC(=O)NC1=O)C2=O)C1CCN(C(=O)CCC(=O)N2CCN(CCOc3cccc(N4C5CCC4CN(c4cc(-c6ccccc6O)nnc4N)C5)c3)CC2)CC1` (racemic) [Example 21, rac-4-[[1-[4-[4-[2-[3-[3-[3-amino-6-(2-hydroxyphenyl)pyridazin-4-yl]-3,8-diazabicyclo[3.2.1]octan-8-yl]phenoxy]ethyl]piperazin-1-yl]-4-oxo-butanoyl]-4-piperidyl]-methyl-amino]-2-(2,6-dioxo-3-piperidyl)isoindoline-1,3-dione], the DC50 was 118 nM and the Emax worked out at 29%.
Taken in the same sequence, the figures for `Nc1nnc(-c2ccccc2O)cc1N1CC2CCC(C1)N2c1cccc(CN2CCN(C(=O)CN3CCN(c4ccc(OC5CCC(=O)NC5=O)cc4)CC3)CC2)c1` (racemic) [Example 195, rac-3-[4-[4-[2-[4-[[3-[3-[3-Amino-6-(2-hydroxyphenyl)pyridazin-4-yl]-3,8-diazabicyclo[3.2.1]octan-8-yl]phenyl]methyl]piperazin-1-yl]-2-oxo-ethyl]piperazin-1-yl]phenoxy]piperidine-2,6-dione] were 72 nM and 60%.
For the compound `Cc1c(C(=O)N2CCN(C(=O)CCC3CCN(c4ccc5c(c4)C(=O)N(C4CCC(=O)NC4=O)C5=O)CC3)CC2)cccc1N1C2CCC1CN(c1cc(-c3ccccc3O)nnc1N)C2` (racemic) [Example 117, rac-5-[4-[3-[4-[3-[3-[3-amino-6-(2-hydroxyphenyl)pyridazin-4-yl]-3,8-diazabicyclo[3.2.1]octan-8-yl]-2-methyl-benzoyl]piperazin-1-yl]-3-oxo-propyl]-1-piperidyl]-2-(2,6-dioxo-3-piperidyl)isoindoline-1,3-dione], the DC50 came out at 144 nM and the Emax came to 50%.
